In patent publication US7666850B2, “Drug screens based on the newly found role of dystroglycan proteolysis and restoration of dystroglycan function thereof” (The Regents of the University of California, priority 1999, dated 2010):
Entries after “also recorded” stand apart in the source; their conditions may differ.

Key:
[1] = system: α-dystroglycan shedding, SCg6 mammary carcinoma cells; test: Dystroglycan proteolysis assay: immunoblot detection of α-dystroglycan shed from the cell surface into culture medium; assay type: cell-based
Description: To ask if shedding was induced by the proteolysis, we treated the cells with a general matrix metaloproteinase (MW) inhibitor, GM6001, to see if α-dystroglycan shedding was inhibited.
Cleavage of a-dystroglycan was detected using cultured cells that cleave and shed dystroglycan from the cell surface. Dystroglycan cleavage was assayed for by immunoblotting to detect the presence of dystroglycan fragments in the medium of cultured cells. Mammary carcinoma cell lines SCg6 or TCL1 were cultured in 10 milliliters (ml) DMEM/F12 medium supplemented with 2% fetal calf serum, 5 μg/ml insulin (Sigma Chemical Co., St. Louis, Mo.), and 50 μg/ml Gentamycin (UCSF Cell Culture Facility). The cells were allowed to grow to 80% confluence in 10 centimeter (cm) plastic tissue culture dishes. The cells were rinsed two times with phosphate-buffered saline (PBS) and the medium was then changed to 10 mls DMEM/F12 medium supplemented with insulin, and Gentamycin, but without added serum. The cells were incubated in this serum-free medium for 48 hrs, then this conditioned medium was harvested and filtered through 0.4 µm filters to remove cells or cell debris. The harvested medium was concentrated from 10 ml to approximately 1.0 ml using a CENTRIPREP-30 concentrator (Amicon, Beverly, Mass.). The concentrated supernatant was added to 1/10th volume of 10× sample buffer (50% glycerol, 100 mM acetic acid, 10% SDS (w/v), 12.5% (v/v) β-mercaptoethanol, bromophenol blue) and heated at 70 degrees Celsius for 15 minutes prior to loading on SDS-polyacrylamide (SDS-PAGE) gels, and subjected to immunoblot analysis. Assays of dystroglycan cleavage and shedding in the presence of the metaloproteinase inhibitor GM6001 (AMS Scientific, Pleasant Hills, Calif.) were performed in the same manner, with varying concentrations of GM6001, or the control C1004 (AMS Scientific), diluted into the serum-free culture medium at the beginning of the 48 hour incubation. To compare treatments, equivalent volumes of conditioned medium from each treated cell population were loaded onto the gel to determine the relative quantities of dystroglycan shed into the medium.
After separation on an 8% SDS-PAGE gels, the proteins were electrophoretically transferred to Immobilon-P membranes (Millipore Corp., Bedford, Mass.) using methanol transfer buffer (20 mM Tris pH 8.3, 150 mM glycine, 0.5% SDS, 20% methanol). Following the transfer, the membranes were blocked for two hours in low salt TBST buffer (20 mM Tris-HCI, pH 8.0, 100 mM NaCl, 1.0% Tween-20 detergent) plus 5% non-fat dried milk (Lucerne). After blocking, the membranes were incubated for 45 minutes with the IIH6 monoclonal antibody (primary antibody against α-dystroglycan, obtained from Dr. Kevin Campbell, University of Iowa) diluted in low salt TBST plus 5% dried milk. The primary antibody was diluted 1:20 from a concentrated (8×) stock of hybridoma supernatant. After incubation with the primary antibody, the membranes were washed with low-salt TBST and incubated 45 minutes with an horse radish peroxidase (HRP) conjugated secondary antibody (anti-IgM Product # A 8786 from Sigma).

HMT-3522-T4 (T4) cells = test: 3-dimensional basement membrane (3D-BM) assay, HMT-3522-T4 cells; assay type: cell-based
Text: Dystroglycan function reduces the growth potential and induces polarity in normal mammary epithelial cells exposed to basement membrane proteins. […] Because dystroglycan function is lost in part by proteolytic shedding, inhibition of dystroglycan shedding can restore or enhance dystroglycan function. Therefore, restoration of dystroglycan function can be used as an assay for inhibitors of the metaloproteinase(s) cleaving and shedding α-dystroglycan. […] The cells were counted and 100,000 cells were resuspended in 0.3-0.5 mls of growth factor-reduced Matrigel (Collaborative Research). This mixture was placed into a 1.5 cm diameter cell culture well, and incubated at 37 degrees Celsius for 30 minutes to induce gelling of the Matrigel. Subsequently, the gelled cell-BM protein mixture was overlayed with growth medium with or without the addition of protease inhibitors or control substances. The cells were cultured at 37 degrees Celsius in a cell culture incubator at 5% carbon dioxide. The growth medium and additives were changed every two days.
The assay was allowed to proceed from 6 to 10 days. […] Measures of polarity and reduced growth potential can be easily optimized by methods existing in the art.

MDA-MD-231 cells = test: 3-dimensional basement membrane (3D-BM) assay, MDA-MD-231 cells; assay type: cell-based
Text: Dystroglycan function reduces the growth potential and induces polarity in normal mammary epithelial cells exposed to basement membrane proteins. […] Because dystroglycan function is lost in part by proteolytic shedding, inhibition of dystroglycan shedding can restore or enhance dystroglycan function. Therefore, restoration of dystroglycan function can be used as an assay for inhibitors of the metaloproteinase(s) cleaving and shedding α-dystroglycan. Carcinoma cell lines, including the HMT-3522-T4 cells and MDA-MD-231 cells, were cultured within the 3-dimensional basement membrane (3-D BM) assay. To accomplish this the cells were trypsinized from routine cell culture, washed once with DMEM/F12 medium, treated with soybean trypsin inhibitor, washed again with DMEM/F12 medium and resuspended in growth medium [DMEM/F12, supplemented with insulin 250 ng/ml (Boehringer Mannheim, Indianapolis, Ind.), 10 μg/ml transferrin (Sigma), 2.6 ng/ml sodium selenite (Collaborative Research), 1.4×10^−6 M hydrocortisone (Collaborative Research), 1×10^−10 M β-estradiol (Sigma),5 μg/ml prolactin (Sigma)]. The cells were counted and 100,000 cells were resuspended in 0.3-0.5 mls of growth factor-reduced Matrigel (Collaborative Research). This mixture was placed into a 1.5 cm diameter cell culture well, and incubated at 37 degrees Celsius for 30 minutes to induce gelling of the Matrigel. Subsequently, the gelled cell-BM protein mixture was overlayed with growth medium with or without the addition of protease inhibitors or control substances. The cells were cultured at 37 degrees Celsius in a cell culture incubator at 5% carbon dioxide. The growth medium and additives were changed every two days.
The assay was allowed to proceed from 6 to 10 days. Over this time, the cells grew from single cells within the gel to form multicellular aggregates with variable characteristics, from polarized and growth arrested (normal phenotype), to disorganized and growing (tumorigenic phenotype), to invasive. […]

MMPs = settings: MPs other than some ADAMs; cited from earlier work

Which results are given for `CNC(=O)[C@H](Cc1c[nH]c2ccccc12)NC(=O)[C@@H](CC(=O)NO)CC(C)C` [GM6001, N-[2(R)-2(hydroxamidocarbonylmethyl)-4-methylpentanoyl]-L-tryptophane methylamide]?
shedding of α-dystroglycan (proteolysed form) into the culture supernatant ([1]; 40 μM, FIG. 1B): blocked; also recorded: no longer detected; shedding of α-dystroglycan in the supernatant across a concentration series ([1]; five different concentrations, FIG. 1C): differentially blocked; Ki ([1]; titration of GM6001, FIG. 1C, 48 h serum-free medium, read-out: Ki (pKi) for inhibition of α-dystroglycan shedding (converted)): ~10 µM; concentration giving nearly complete inhibition of α-dystroglycan shedding ([1]; titration, FIG. 1C): over 25 μM; effect on tumor cell growth characteristics in the 3D-BM assay (HMT-3522-T4 (T4) cells; 2 μM, FIG. 3B): No effect; tumorigenic phenotype in the 3D-BM assay (HMT-3522-T4 (T4) cells; 40 μM, FIGS. 3C, 3D): Complete “reversion” of the tumor phenotype; also recorded: caused growth arrest, polarization and reversion to a non-tumorigenic phenotype; cell growth after removal of the inhibitor (HMT-3522-T4 (T4) cells; removal for 7 days following a ten-day incubation with the inhibitor): did not permit a re-initiation of cell growth; effect on tumor cell growth characteristics in the 3D-BM assay (MDA-MD-231 cells; 2 μM, FIG. 3F): No effect; growth and invasion of MDA-MD-231 cells in the 3D-BM assay (MDA-MD-231 cells; 40 μM, FIGS. 3G, 3H): potently inhibited the growth and invasion; concentration required to reduce growth (and invasion) of MDA-MD-231 cells (MDA-MD-231 cells; 6 to 10 days in Matrigel): over 20 μM; GM6001 concentrations that generally inhibit other MP's (MMPs): below 30 μM

For TAPI, which “reversion of the T4 tumor cell line in the 3D-BM assay” value (HMT-3522-T4 (T4) cells; 10 μM) is on record?
Its value is “revert”.
